Experimental data: US9051325B2, “Bicyclic [5,6] imidazo pyrimodone compounds for use in the treatment of diseases or conditions mediated by Lp-PLA2” (GlaxoSmithKline Intellectual Property Development Limited, priority 2013, dated 2015)
Like-named read-outs stand apart in the source and are kept apart here.

Assays:
[1] = target: T1, recombinant human Lp-PLA2 (Homo sapiens, UniProt Q13093); experiment: Recombinant human Lp-PLA2 assay (rhLp-PLA2, PED6 assay); assay type: biochemical
T1 sequence (Q13093 22-441): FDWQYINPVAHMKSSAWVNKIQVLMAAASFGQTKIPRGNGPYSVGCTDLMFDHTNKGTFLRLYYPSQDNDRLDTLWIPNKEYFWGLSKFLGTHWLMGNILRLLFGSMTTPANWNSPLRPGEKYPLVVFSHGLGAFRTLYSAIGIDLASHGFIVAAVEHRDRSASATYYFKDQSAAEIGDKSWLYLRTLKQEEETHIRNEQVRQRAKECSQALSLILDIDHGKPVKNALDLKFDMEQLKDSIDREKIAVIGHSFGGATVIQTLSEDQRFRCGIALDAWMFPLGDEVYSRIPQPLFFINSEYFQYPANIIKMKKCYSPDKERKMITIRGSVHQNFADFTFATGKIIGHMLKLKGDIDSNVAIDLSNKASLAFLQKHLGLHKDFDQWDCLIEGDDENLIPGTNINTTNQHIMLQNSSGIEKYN
Excerpt: (1) Recombinant Human Lp-PLA2 Assay (rhLp-PLA2) (Also Referred to as “PED6” Assay)
N-((6-(2,4-dinitrophenyl)amino)-hexanoyl)-2-(4,4-difluoro-5,7-dimethyl-4-bora-3a,4a-diaza-s-indacene-3-pentanoyl)-1-hexadecanoyl-sn-glycero-3-phosphoethanolamine, triethylammonium salt (PED6) is a commercially available fluorescently-labeled phospholipid, which is commercially available from Invitrogene and Molecular Probes. There is a quenching […] and a Bodipy fluorescein (FL) group in the sn2 position. Upon cleavage with Lp-PLA2, the Bodipy FL group is liberated and then may result in an increase in fluorescence. Inhibitors of Lp-PLA2 therefore prevent this cleavage and no fluorescent increase is observed.
The PED6 assay was run as an unquenched 10 μL assay. The source plate containing the compounds to be tested was prepared by making 1:3 (by volume) serial dilution of the compounds within DMSO on 384-well microplate. Then, 0.01 μL of the compounds on compound source plate were transferred into 384 well Greiner 784076 (black) plates using ECHO liquid dispenser. 5 μL of recombinant human Lp-PLA2 enzyme (4 nM (or […]) rhLp-PLA2 in assay buffer of 50 mM HEPES, pH 7.4, 150 mM NaCl, 1 mM CHAPS) was added to each well of the plate. Plates were centrifuged for 10 sec at 500 rpm. After 30 minutes preincubation, 5 μL of substrate ([…] PED6 [from 5 mM DMSO stock] in assay buffer of 50 mM HEPES, pH 7.4, 150 mM NaCl, 1 mM CHAPS) was added to 384 well Greiner 784076 (black) plates. Plates were centrifuged for 10 sec at 500 rpm. The plate was covered to protect it from light and incubated for 20 min at room temperature. The plates were read for fluorescence intensity at ex: 480/em: 540 using ViewLux microplate imager for Envision spectrofluoroimeters pIC50 data, curve and QC analysis was conducted by using XL fit module in Excel.

Lp-PLA2 in human plasma = target: T2, Lp-PLA2 in human plasma (Homo sapiens, UniProt Q13093); experiment: Lp-PLA2 human plasma assay (Thio-PAF assay); assay type: biochemical; settings: pooled human plasma; lower bounds; read-out: pIC50 values in the thio-PAF assay (converted)
T2 construct: from tissue; host or cells: pooled human plasma
T2 sequence (Q13093 22-441): T1 sequence (Q13093 22-441)
Excerpt: (3) Lipoprotein-Associated Phospholipase A2 (Lp-PLA2) Human Plasma Assay (Also Referred to as “Thio-PAF assay”)
The human plasma assay utilizes a thioester analog of PAF (phosphatidylcholine), where hydrolysis yields to the formation of a phospholipid containing a free thiol group. The amount of thiol is quantitated continuously by reacting with CPM (7-diethylamino-3-(4′-maleimidylphenyl)-4-methylcoumarin), a maleimide which increases in fluoresence after Michael addition of thiols. This assay may detect the activity of Lp-PLA2 in human plasma, as determined by specific inhibition by Lp-PLA2 inhibitors.
The thio-PAF assay was run as a quenched 15 μL assay. Compounds source plate was prepared by making 1:3 (by volume) serial dilution of the compounds into pure DMSO on 384-well microplate. 0.01 μL of compounds on compound source plate were transferred to 384 well Greiner 784076 (black) low-volume plates by ECHO liquid dispenser. 8 μL pooled human plasma, which was previously aliquoted and frozen, was added. Plates were centrifuged for 10 sec at 500 rpm. After 30 minutes preincubation, 2 μL of substrate solution comprising 2.5 mM 2-thio-PAF [from ethanol stock], 32 μM CPM [from a DMSO stock] and 3.2 mM NEM (N-ethylmaleimide) [made fresh daily in DMSO] in assay buffer of 50 mM HEPES, pH 7.4, 150 mM NaCl, 1 mM CHAPS was added to 384 well Greiner 784076 (black) low-volume plates by BRAVO liquid handling station. After 2 mins, reaction was quenched with 5 μL of 5% aqueous trifluoroacetic acid (TFA). Plates were covered to protect from light and incubated for 40 min at room temperature. Plates were read at ex: 380/em: 485 using-Envision microplate reader. PIC50 data, curve and QC analysis were conducted by using XLFit module in Excel.

[2] = lower bounds, read-out: pIC50 values in the PED6 assay (converted)
[3] = read-out: rhLp-PLA2 (PED6 assay) (pIC50) (converted)

SMILES	IC50 [1, 2] [nM]	IC50 (Lp-PLA2 in human plasma) [nM]	IC50 [1, 3] [nM]
CC1Cn2c(cc(OCc3ccc(Oc4ccnc(C(F)(F)F)c4)c(F)c3)nc2=O)N1C (stereo not shown) [Example E31, 7-((3-fluoro-4-((2-(trifluoromethyl)pyridin-4-yl)oxy)benzyl)oxy)-1,2-dimethyl-2,3-dihydroimidazo[1,2-c]pyrimidin-5(1H)-one]	≤ 1	≤ 100	
CC1(C)Cn2c(cc(OCc3ccc(Oc4ccc(C(F)(F)F)nc4)c(F)c3)nc2=O)N1 [Example E37, 7-((3-fluoro-4-((6-(trifluoromethyl)pyridin-3-yl)oxy)benzyl)oxy)-2,2-dimethyl-2,3-dihydroimidazo[1,2-c]pyrimidin-5(1H)-one]	≤ 1	≤ 100	
CC1(C)Cn2c(cc(OCc3ccc(Oc4ccnc(C(F)(F)F)c4)c(F)c3)nc2=O)N1 [Example E38, 7-((3-fluoro-4-((2-(trifluoromethyl)pyridin-4-yl)oxy)benzyl)oxy)-2,2-dimethyl-2,3-dihydroimidazo[1,2-c]pyrimidin-5(1H)-one]	≤ 1	≤ 100	
CC1(C)Cn2c(cc(OCc3cc(F)c(Oc4ccc(C(F)(F)F)nc4)c(F)c3)nc2=O)N1 [Example E39, 7-((3,5-difluoro-4-((6-(trifluoromethyl)pyridin-3-yl)oxy)benzyl)oxy)-2,2-dimethyl-2,3-dihydroimidazo[1,2-c]pyrimidin-5(1H)-one]	≤ 1	≤ 100	
C[C@H]1Cn2c(cc(OCc3ccc(Oc4cnc(C(F)(F)F)nc4)c(F)c3)nc2=O)N1C [Example E40, (S)-7-((3-fluoro-4-((2-(trifluoromethyl)pyrimidin-5-yl)oxy)benzyl)oxy)-1,2-dimethyl 2,3-dihydroimidazo[1,2-c]pyrimidin-5(1H)-one]	≤ 10	≤ 100	
CC1(C)Cn2c(cc(OCc3ccc(Oc4cncc(C(F)(F)F)c4)c(F)c3)nc2=O)N1 [Example E41, 7-((3-fluoro-4-((5-(trifluoromethyl)pyridin-3-yl)oxy)benzyl)oxy)-2,2-dimethyl-2,3-dihydroimidazo[1,2-c]pyrimidin-5(1H)-one]	≤ 1	≤ 100	
CN1c2cc(OCc3ccc(F)c(C#N)c3)nc(=O)n2CC1(C)C [Example E42, 2-fluoro-5-(((1,2,2-trimethyl-5-oxo-1,2,3,5-tetrahydroimidazo[1,2-c]pyrimidin-7-yl)oxy)methyl)benzonitrile]	≤ 1	≤ 100	0.316
CN1c2cc(OCc3ccc(Oc4cnc(C(F)(F)F)nc4)c(F)c3)nc(=O)n2CC1(C)C [Example E43, 7-((3-fluoro-4-((2-(trifluoromethyl)pyrimidin-5-yl)oxy)benzyl)oxy)-1,2,2-trimethyl-2,3-dihydroimidazo[1,2-c]pyrimidin-5(1H)-one]	≤ 1	≤ 100	0.0501
CC1(C)Cn2c(cc(OCc3ccc(Oc4ccc(Cl)nc4)c(F)c3)nc2=O)N1 [Example E44, 7-((4-((6-chloropyridin-3-yl)oxy)-3-fluorobenzyl)oxy)-2,2-dimethyl-2,3-dihydroimidazo[1,2-c]pyrimidin-5(1H)-one]	≤ 1	≤ 100	
CC1(C)Cn2c(cc(OCc3cc(F)c(Oc4ccnc(Cl)c4)c(F)c3)nc2=O)N1 [Example E45, 7-((4-((2-chloropyridin-4-yl)oxy)-3,5-difluorobenzyl)oxy)-2,2-dimethyl-2,3-dihydroimidazo[1,2-c]pyrimidin-5(1H)-one]	≤ 1	≤ 100	
CC(C)N1c2cc(OCc3cccc(F)c3F)nc(=O)n2CC1(C)C [Example E46, 7-((2,3-difluorobenzyl)oxy)-1-isopropyl-2,2-dimethyl-2,3-dihydroimidazo[1,2-c]pyrimidin5(1H)-one]	≤ 10	≤ 100	3.98
C[C@@H]1Cn2c(cc(OCc3cc(F)c(F)c(F)c3)nc2=O)N1C [Example E48, (R)-1,2-dimethyl-7-((3,4,5-trifluorobenzyl)oxy)-2,3-dihydroimidazo[1,2-c]pyrimidin-5(1H)-one]	≤ 10	≤ 100	
C[C@H]1Cn2c(cc(OCc3cc(F)c(F)c(F)c3)nc2=O)N1 [Example E49, (S)-2-methyl-7-((3,4,5-trifluorobenzyl)oxy)-2,3-dihydroimidazo[1,2-c]pyrimidin-5(1H)-one]	≤ 10	≤ 100	
CC1(C)Cn2c(cc(OCc3cc(F)c(F)c(F)c3)nc2=O)N1 [Example E50, 2,2-dimethyl-7-((3,4,5-trifluorobenzyl)oxy)-2,3-dihydroimidazo[1,2-c]pyrimidin-5(1H)-one]	≤ 1	≤ 100	
C[C@@H]1Cn2c(cc(OCc3ccc(Oc4ccnc(C(F)(F)F)c4)c(F)c3)nc2=O)N1C [Example E51, (R)-7-((3-fluoro-4-((2-(trifluoromethyl)pyridin-4-yl)oxy)benzyl)oxy)-1,2-dimethyl-2,3-dihydroimidazo[1,2-c]pyrimidin-5(1H)-one]	≤ 1	≤ 100	
C[C@@H]1Cn2c(cc(OCc3ccc(F)c(C#N)c3)nc2=O)N1C [Example E53, (R)-5-(((1,2-dimethyl-5-oxo-1,2,3,5-tetrahydroimidazo[1,2-c]pyrimidin-7-yl)oxy)methyl)-2-fluorobenzonitrile]	≤ 10	≤ 100	
C[C@H]1Cn2c(cc(OCc3ccc(Oc4cncc(C(F)(F)F)c4)c(F)c3)nc2=O)N1C [Example E54, (S)-7-((3-fluoro-4-((5-(trifluoromethyl)pyridin-3-yl)oxy)benzyl)oxy)-1,2-dimethyl-2,3-dihydroimidazo[1,2-c]pyrimidin-5(1H)-one]	≤ 1	≤ 100	0.126
C[C@H]1Cn2c(cc(OCc3ccc(Oc4cncc(C(F)(F)F)c4)c(C#N)c3)nc2=O)N1C [Example E55, (S)-5-(((1,2-dimethyl-5-oxo-1,2,3,5-tetrahydroimidazo[1,2-c]pyrimidin-7-yl)oxy)methyl)-2-((5-(trifluoromethyl)pyridin-3-yl)oxy)benzonitrile]	≤ 1	≤ 100	
C[C@H]1Cn2c(cc(OCc3cc(F)c(Oc4cncc(C(F)(F)F)c4)c(F)c3)nc2=O)N1C [Example E56, (S)-7-((3,5-difluoro-4-((5-(trifluoromethyl)pyridin-3-yl)oxy)benzyl)oxy)-1,2-dimethyl-2,3-dihydroimidazo[1,2-c]pyrimidin-5(1H)-one]	≤ 1	≤ 100	0.1
C[C@H]1Cn2c(cc(OCc3cc(F)c(Oc4ccnc(C(F)(F)F)c4)c(F)c3)nc2=O)N1C [Example E58, (S)-7-((3,5-difluoro-4-((2-(trifluoromethyl)pyridin-4-yl)oxy)benzyl)oxy)-1,2-dimethyl-2,3-dihydroimidazo[1,2-c]pyrimidin-5(1H)-one]	≤ 1	≤ 100	0.0631
